Experimental data taken from PubChem BioAssay (NCI).
Where “and” joins values, the source holds several entries; their conditions need not be identical. Equal values may be shown once.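 96-well plates; 48 h exposure; 5 concentrations. Endpoints by linear interpolation between flanking doses. Not reached: highest tested concentration assigned. Abbreviation: GI50, concentration required for 50% inhibition of growth. TGI denotes the concentration required for complete inhibition of growth.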

Experiments:
Test in all cases: DTP human tumour cell line panel, 48 h
[1] = tested on: DU-145 prostate
[2] = tested on: HCT-116 colon
[3] = tested on: IGROV1 ovarian
[4] = tested on: KM12 colon
[5] = tested on: OVCAR-4 ovarian
[6] = tested on: OVCAR-8 ovarian
[7] = tested on: SN12C renal
[8] = tested on: T-47D breast
[9] = tested on: UACC-257 melanoma
[10] = tested on: SNB-75 CNS

SMILES | TGI [1] | TGI [2] | TGI [3] | TGI [4] | TGI [5] | TGI [6] | TGI [7] | TGI [8] | TGI [9] | TGI [10] | GI50 [1] | GI50 [2] | GI50 [3] | GI50 [4] | GI50 [7] | GI50 [10] | GI50 [8] | GI50 [9]
CC[C@H]1CN2CCc3cc(OC)c(OC)cc3[C@@H]2C[C@@H]1C[C@H]1NCCc2cc(OC)c(OC)cc21 | 0.0643 µM | 0.0805 µM and 0.153 µM | 0.0935 µM and 0.277 µM | 0.138 µM | 0.0541 µM and 0.0117 µM | 0.532 µM and 1.09 µM | 0.295 µM and 0.271 µM | 0.0887 µM | 0.361 µM and 0.529 µM | – | – | – | – | – | – | – | – | –
Cc1cc(=O)c2c([nH]1)NS(=O)(=O)NC2=O | – | > 100 µM | > 100 µM | > 100 µM | > 100 µM | > 100 µM | > 100 µM | – | > 100 µM | > 100 µM | – | – | – | – | – | – | – | –
CC(=O)N(C(C)=O)C1=C2c3ccccc3N(S(=O)(=O)c3ccccc3)C2n2c(=O)n(-c3ccccc3)c(=O)n2C1 (centres undefined) | – | > 100 µM | > 100 µM | > 100 µM | – | > 100 µM | > 100 µM | – | > 100 µM | 51.3 µM | – | – | – | – | – | – | – | –
CCOC(=O)/C=C(\C)c1ccc(C)cc1C | – | > 100 µM | > 100 µM | > 100 µM | > 100 µM | > 100 µM | > 100 µM | – | > 100 µM | > 100 µM | – | – | – | – | – | – | – | –
O=c1ccc2cc3ccc4cccc5ccc(c2o1)c3c45 | – | – | > 100 µM | – | – | > 100 µM | > 100 µM | – | – | 50 µM | – | – | – | – | – | – | – | –
O=C1/C(=C\c2cccc(Oc3ccccc3)c2)S(=O)(=O)C(c2ccccc2)N1Cc1ccccc1 (centres undefined) | 74 µM | > 100 µM | – | 56.8 µM | – | 53.4 µM | 58.6 µM | > 100 µM | 62.2 µM | – | – | – | – | – | – | – | – | –
BrC/C=C/C[P+](c1ccccc1)(c1ccccc1)c1ccccc1 | – | > 100 µM | > 100 µM | 14.7 µM | > 100 µM | > 100 µM | > 100 µM | – | > 100 µM | 78.3 µM | – | – | – | – | – | – | – | –
N#CCCN(CCC#N)c1ccc(/C=C2\N=C(c3ccccc3)N(c3ccc(Cl)cc3)C2=O)cc1 | > 100 µM | > 100 µM | > 100 µM | > 100 µM | > 100 µM | > 100 µM | > 100 µM | > 100 µM | > 100 µM | – | – | – | – | – | – | – | – | –
O=C1C=CC(=O)N1Nc1ccc([N+](=O)[O-])cc1[N+](=O)[O-] | – | > 100 µM | > 100 µM | > 100 µM | > 79.9 µM | > 100 µM | > 100 µM | – | > 100 µM | > 100 µM | – | – | – | – | – | – | – | –
CC(=O)O[C@]12CCCCCC1C1(O)C(O)CCC[C@H]12 (some centres undefined) | – | > 100 µM | – | > 100 µM | > 100 µM | > 100 µM | > 100 µM | – | > 100 µM | > 100 µM | – | – | – | – | – | – | – | –
CC(C)(C)NC(=O)/C(=C\Sc1ccccc1)c1ccc2c(c1)OCO2 | > 100 µM | 65.8 µM | > 100 µM | > 100 µM | > 100 µM | > 100 µM | 84.2 µM | > 100 µM | 74.5 µM | – | – | – | – | – | – | – | – | –
COc1ccc2cc(-c3ccc(-c4ccc(C(=N)N)s4)s3)ccc2c1 | 3.32 µM | 4.11 µM | 5.45 µM | 4.68 µM | – | – | 4.65 µM | 4.01 µM | 35.4 µM | 26.6 µM | 1.7 µM | 2.08 µM | 2.27 µM | 2.06 µM | 2.12 µM | 10.4 µM | 1.79 µM | 19.6 µM
COc1ccc(C#CC(=O)O)c(OC)c1 | > 100 µM | > 100 µM | – | > 100 µM | > 100 µM | > 100 µM | > 100 µM | > 100 µM | > 100 µM | – | – | – | – | – | – | – | – | –
CC12CC(=O)C3C(C(=O)C1)C32C (centres undefined) | > 100 µM | > 100 µM | > 100 µM | > 100 µM | > 100 µM | > 100 µM | > 100 µM | – | > 100 µM | > 100 µM | – | – | – | – | – | – | – | –
COc1ccc2nc3cc(Cl)ccc3c(NCCCNCCCNc3c4ccc(Cl)cc4nc4ccc(OC)cc34)c2c1 | 0.156 µM | – | – | – | – | – | 0.285 µM | 1.23 µM | 1.76 µM | 0.23 µM | – | – | – | – | – | – | – | –
N#C/C(=C\c1cc(Br)c(O)c(Br)c1)c1cccnc1 | > 100 µM | > 100 µM | > 100 µM | > 100 µM | > 100 µM | > 100 µM | > 100 µM | – | 73.5 µM | > 100 µM | – | – | – | – | – | – | – | –
O=C(CNc1ccccc1Cl)Nn1c(-c2ccccc2)nc2ccccc2c1=O | > 100 µM | > 100 µM | 75.4 µM | 87.1 µM | 93.4 µM | > 100 µM | > 100 µM | – | > 100 µM | 63 µM | – | – | – | – | – | – | – | –
c1ccc2c(c1)NC(C1OC3CCCN3C1C1Nc3ccccc3S1)S2 (centres undefined) | > 100 µM | > 100 µM | > 100 µM | > 100 µM | > 100 µM | > 100 µM | > 100 µM | – | > 100 µM | > 100 µM | – | – | – | – | – | – | – | –
